This is an account of results in ChEMBL document CHEMBL1122959, “3-Hydroxy-3-methylglutaryl-coenzyme A reductase inhibitors. 1. Structural modification of 5-substituted 3,5-dihydroxypentanoic acids and their lactone derivatives” (J Med Chem, 1985).

The target in assay [1] is T1, 3-hydroxy-3-methylglutaryl-coenzyme A reductase (Rattus norvegicus) (UniProt P51639).
T1 sequence (whole entry): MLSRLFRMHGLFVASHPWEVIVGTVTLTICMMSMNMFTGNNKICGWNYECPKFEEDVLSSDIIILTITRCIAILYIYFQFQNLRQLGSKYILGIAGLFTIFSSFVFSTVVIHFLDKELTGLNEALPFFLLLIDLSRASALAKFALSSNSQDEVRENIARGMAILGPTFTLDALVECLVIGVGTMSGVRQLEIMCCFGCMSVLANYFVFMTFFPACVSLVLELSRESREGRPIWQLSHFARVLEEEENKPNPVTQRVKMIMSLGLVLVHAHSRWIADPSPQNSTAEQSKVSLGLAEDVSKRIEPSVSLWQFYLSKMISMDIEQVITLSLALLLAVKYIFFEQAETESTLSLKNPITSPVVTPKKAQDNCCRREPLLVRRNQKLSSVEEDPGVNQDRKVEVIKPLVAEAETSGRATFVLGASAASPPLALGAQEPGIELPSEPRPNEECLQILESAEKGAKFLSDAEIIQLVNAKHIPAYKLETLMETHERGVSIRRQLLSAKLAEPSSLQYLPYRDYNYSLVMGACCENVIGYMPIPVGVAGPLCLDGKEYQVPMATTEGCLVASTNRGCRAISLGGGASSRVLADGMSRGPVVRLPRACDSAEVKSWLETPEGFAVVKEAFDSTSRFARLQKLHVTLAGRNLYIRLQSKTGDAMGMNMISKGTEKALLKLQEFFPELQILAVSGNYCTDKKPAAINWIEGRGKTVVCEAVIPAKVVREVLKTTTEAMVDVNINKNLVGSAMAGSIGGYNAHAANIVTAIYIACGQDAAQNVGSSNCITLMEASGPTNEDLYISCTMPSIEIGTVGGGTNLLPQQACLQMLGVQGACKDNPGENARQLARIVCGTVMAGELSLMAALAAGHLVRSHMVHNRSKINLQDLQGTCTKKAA
The experiment in a line: Inhibitory activity against partially purified rat liver HMG CoA reductase at 0.2 ug/ml concentration.

For assay [2], the target named is T1, 3-hydroxy-3-methylglutaryl-coenzyme A reductase (Rattus norvegicus). The experiment in a line: Inhibitory activity against partially purified rat liver HMG CoA reductase at 0.8 ug/ml concentration.
The target is the same in assay [3]. The experiment in a line: Inhibitory activity against partially purified rat liver HMG CoA reductase at 0.1 ug/ml concentration.
For assay [4], the target named is T2, 3-hydroxy-3-methylglutaryl-coenzyme A reductase (Rattus norvegicus, UniProt P51639).
T2 sequence (P51639 whole entry): T1 sequence (whole entry)
Description: In vitro inhibitory activity against HMG CoA reductase.

In assay [5] the target is T1, 3-hydroxy-3-methylglutaryl-coenzyme A reductase (Rattus norvegicus). Conditions: 1.4 ug/ml.
Description: Inhibitory activity against partially purified rat liver HMG CoA reductase at 1.4 ug/ml concentration
Assay [6] shares this target. Description: Relative potency against HMG CoA reductase.
Assay [7] has the same target. The experiment in a line: Inhibitory activity against partially purified rat liver HMG CoA reductase at 0.35 ug/ml concentration.
Assay [8] shares this target. The experiment in a line: Inhibitory activity against partially purified rat liver HMG CoA reductase at 0.75 ug/ml concentration.
Assay [9] shares this target. Description: Inhibitory activity against partially purified rat liver HMG CoA reductase at 1.0 ug/ml concentration.
The target is the same in assay [10]. The experiment in a line: Inhibitory activity against partially purified rat liver HMG CoA reductase at 6 ug/ml concentration.
Assay [11] shares this target. Description: Inhibitory activity against partially purified rat liver HMG CoA reductase at 2 ug/ml concentration.
Assay [12] has the same target. The experiment in a line: Inhibitory activity against partially purified rat liver HMG CoA reductase at 4 ug/ml concentration.

For `O=C1C[C@H](O)C[C@@H](C=C2c3ccccc3-c3ccccc32)O1`, the inhibition (as a rule, the share of the control response that was lost under treatment) stood at 48% in assay [1], 81% in [2], 25% in assay [3] and 61% in assay [5]. For the same molecule, in [4], inhibition was half-maximal at 890 nM (IC50). Further, the Relative potency in [6] came to 1.5.
As for `O=C1C[C@H](O)C[C@@H](/C=C/c2cccc3ccc4ccccc4c23)O1`, the results for the inhibition in [7], in [8] and in assay [9] were 39%, 58% and 64%, respectively. For the same molecule, in assay [4], half-maximal inhibition (IC50) required 1900 nM. In [6], this molecule displayed a Relative potency of 1.1.
Turning to `CO[C@H]1C[C@H](O)C[C@@H](/C=C/c2ccc(Cl)cc2Cl)O1`, the inhibition in assay [10] turned out to be 4%; in assay [11], 0%; in assay [12], 2%.
